{"source": "patent US11033624B2", "about": "“Medical item for prevention and treatment of ear infection” (Novaflux Inc., priority 2010, dated 2021)", "assay": "Thermogravimetric analysis weight loss", "assay_type": "physicochemical", "details": "250° C., pure state, heating rate 10° C./min", "procedure": "An anti-biotic agent was selected consisting of ciprofloxacin betaine crystalline powder (C.A.S. Registry No. 85721-33-1). Ciprofloxacin is a broad spectrum antimicrobial agent having less than 1 percent weight loss at a temperature of 250° C. when measured in a pure state by thermogravimetric analysis at a heating rate of 10° C./min. The ciprofloxacin melted over a temperature range of 252° C. to 271° C.", "data": [{"smiles": "O=C(O)c1cn(C2CC2)c2cc(N3CCNCC3)c(F)cc2c1=O", "note": "[Ciprofloxacin, ciprofloxacin betaine]", "values": [{"measurement": "weight loss by thermogravimetric analysis", "result": "less than 1%"}]}]}
